Experimental data published in patent US7271165B2, “Rifamycin analogs and uses thereof” (priority 2003, dated 2007).
Converted amounts (≈) assume the structure as drawn.

Columns and labels:
S. aureus = experiment: MIC assay, S. aureus; assay type: cell-based, Staphylococcus aureus
S. pneumo. = experiment: MIC assay, S. pneumo.; assay type: cell-based, Streptococcus pneumoniae
E. faecalis = experiment: MIC assay, E. faecalis; assay type: cell-based, Enterococcus faecalis
H. flu = assay type: cell-based, H. influenza; settings: H. flu
E coli = experiment: MIC assay, E coli; assay type: cell-based

| SMILES | MIC (μg/mL) S. aureus (S. aureus) | MIC (μg/mL) S. pneumo. (S. pneumo.) | MIC (μg/mL) E. faecalis (E. faecalis) | MIC (μg/mL) H. flu (H. flu) | MIC (μg/mL) E coli (E coli) |
| --- | --- | --- | --- | --- | --- |
| CO[C@H]1/C=C/O[C@@]2(C)Oc3c(C)c(O)c4c(=O)c(c5oc6cc(N7CCC(N(C)C)CC7)cc(O)c6nc-5c4c3C2=O)NC(=O)/C(C)=C\C=C\[C@H](C)[C@H](O)[C@@H](C)[C@@H](O)[C@@H](C)[C@H](O)[C@@H]1C [Compound 18, 25-O-deacetyl-3′-hydroxy-5′-(4-N,N dimethylamino-1-piperidinyl)benzoxazinorifamycin] | 0.004 µg/mL (≈ 4.52 nM) | 0.00012 µg/mL (≈ 0.136 nM) | 0.12 µg/mL (≈ 136 nM) | 0.5 µg/mL (≈ 565 nM) | 4 µg/mL (≈ 4520 nM) |
| CCOC(=O)NC1CCN(c2ccc3nc4c5c6c7c(C)c(O)c5c(=O)c(c-4n(C)c3c2)NC(=O)/C(C)=C\C=C\[C@H](C)[C@H](O)[C@@H](C)[C@@H](O)[C@@H](C)[C@H](OC(C)=O)[C@H](C)[C@@H](OC)/C=C/O[C@@](C)(O7)C6=O)CC1 [Compound 19] | 0.004 µg/mL (≈ 4.13 nM) | 0.001 µg/mL (≈ 1.03 nM) | 0.06 µg/mL (≈ 62 nM) | 0.25 µg/mL (≈ 258 nM) | 4 µg/mL (≈ 4130 nM) |
| COC1C=COC2(C)Oc3c(C)c(O)c4c(=O)c(c5oc6cc(N7CC8C(N)C8C7)cc(O)c6nc-5c4c3C2=O)NC(=O)C(C)=CC=CC(C)C(O)C(C)C(O)C(C)C(O)C1C [Compound 20, 25-O-deacetyl-3′-hydroxy-5′-[6-amino-(1R,5S)-3-azabicyclo[3.1.0]hex-3-yl]benzoxazinorifamycin] | 2 µg/mL (≈ 2340 nM) | 1 µg/mL (≈ 1170 nM) | >8 µg/mL | >8 µg/mL | >8 µg/mL |
| CCOC(=O)NC1C2CN(c3cc(O)c4nc5c6c7c8c(C)c(O)c6c(=O)c(c-5oc4c3)NC(=O)C(C)=CC=CC(C)C(O)C(C)C(O)C(C)C(OC(C)=O)C(C)C(OC)C=COC(C)(O8)C7=O)CC21 (centres unmarked) [Compound 21] | 0.004 µg/mL (≈ 4.13 nM) | 0.001 µg/mL (≈ 1.03 nM) | 0.12 µg/mL (≈ 124 nM) | 0.5 µg/mL (≈ 516 nM) | 4 µg/mL (≈ 4130 nM) |
| CO[C@H]1/C=C/O[C@@]2(C)Oc3c(C)c(O)c4c(=O)c(c5oc6cc(N7CCC(NC(=O)OC(C)C)CC7)cc(O)c6nc-5c4c3C2=O)NC(=O)/C(C)=C\C=C\[C@H](C)[C@H](O)[C@@H](C)[C@@H](O)[C@@H](C)[C@H](OC(C)=O)[C@@H]1C [Compound 22] | 0.015 µg/mL (≈ 15.2 nM) | 0.00025 µg/mL (≈ 0.254 nM) | 4 µg/mL (≈ 4060 nM) | 2 µg/mL (≈ 2030 nM) | >8 µg/mL |
| CO[C@H]1/C=C/O[C@@]2(C)Oc3c(C)c(O)c4c(=O)c(c5oc6cc(N7CCC(NS(=O)(=O)C(F)(F)F)CC7)cc(O)c6nc-5c4c3C2=O)NC(=O)/C(C)=C\C=C\[C@H](C)[C@H](O)[C@@H](C)[C@@H](O)[C@@H](C)[C@H](OC(C)=O)[C@@H]1C [Compound 23] | 0.015 µg/mL (≈ 14.5 nM) | 0.00012 µg/mL (≈ 0.116 nM) | 4 µg/mL (≈ 3880 nM) | 2 µg/mL (≈ 1940 nM) | >8 µg/mL |
| CCCC(=O)NC1CCN(c2cc(O)c3nc4c5c6c7c(C)c(O)c5c(=O)c(c-4oc3c2)NC(=O)/C(C)=C\C=C\[C@H](C)[C@H](O)[C@@H](C)[C@@H](O)[C@@H](C)[C@H](OC(C)=O)[C@H](C)[C@@H](OC)/C=C/O[C@@](C)(O7)C6=O)CC1 [Compound 24, 3′-hydroxy-5′-[4-butanamide-1-piperidinyl]benzoxazinorifamycin] | 0.015 µg/mL (≈ 15.5 nM) | 0.001 µg/mL (≈ 1.03 nM) | 2 µg/mL (≈ 2060 nM) | 2 µg/mL (≈ 2060 nM) | >8 µg/mL |
| CO[C@H]1/C=C/O[C@@]2(C)Oc3c(C)c(O)c4c(=O)c(c5oc6cc(N7CCC(NS(C)(=O)=O)CC7)cc(O)c6nc-5c4c3C2=O)NC(=O)/C(C)=C\C=C\[C@H](C)[C@H](O)[C@@H](C)[C@@H](O)[C@@H](C)[C@H](OC(C)=O)[C@@H]1C [Compound 25] | 0.008 µg/mL (≈ 8.19 nM) | 0.001 µg/mL (≈ 1.02 nM) | 2 µg/mL (≈ 2050 nM) | 2 µg/mL (≈ 2050 nM) | >8 µg/mL |
| CCCNC(=O)NC1CCN(c2cc(O)c3nc4c5c6c7c(C)c(O)c5c(=O)c(c-4oc3c2)NC(=O)/C(C)=C\C=C\[C@H](C)[C@H](O)[C@@H](C)[C@@H](O)[C@@H](C)[C@H](O)[C@H](C)[C@@H](OC)/C=C/O[C@@](C)(O7)C6=O)CC1 [Compound 26, 25-O-deacetyl-3′-hydroxy-5′-[4-propyluryl-1-piperidinyl]benzoxazinorifamycin] | 0.008 µg/mL (≈ 8.49 nM) | 0.00012 µg/mL (≈ 0.127 nM) | 2 µg/mL (≈ 2120 nM) | 1 µg/mL (≈ 1060 nM) | >8 µg/mL |
| CO[C@H]1/C=C/O[C@@]2(C)Oc3c(C)c(O)c4c(=O)c(c5oc6cc(N7CCC(NS(C)(=O)=O)CC7)cc(O)c6nc-5c4c3C2=O)NC(=O)/C(C)=C\C=C\[C@H](C)[C@H](O)[C@@H](C)[C@@H](O)[C@@H](C)[C@H](O)[C@@H]1C [Compound 27] | 0.015 µg/mL (≈ 16 nM) | 0.001 µg/mL (≈ 1.07 nM) | 1 µg/mL (≈ 1070 nM) | 0.12 µg/mL (≈ 128 nM) | >8 µg/mL |
| CCCNC(=O)NC1CCN(c2cc(O)c3nc4c5c6c7c(C)c(O)c5c(=O)c(c-4oc3c2)NC(=O)/C(C)=C\C=C\[C@H](C)[C@H](O)[C@@H](C)[C@@H](O)[C@@H](C)[C@H](OC(C)=O)[C@H](C)[C@@H](OC)/C=C/O[C@@](C)(O7)C6=O)CC1 [Compound 28, 3′-hydroxy-5′-[4-propyluryl-1-piperidinyl]benzoxazinorifamycin] | 0.03 µg/mL (≈ 30.5 nM) | 0.002 µg/mL (≈ 2.03 nM) | 1 µg/mL (≈ 1020 nM) | 0.25 µg/mL (≈ 254 nM) | >8 µg/mL |
| CO[C@H]1/C=C/O[C@@]2(C)Oc3c(C)c(O)c4c(=O)c(c5oc6cc(N7CCC(NC(=O)OC(C)C)CC7)cc(O)c6nc-5c4c3C2=O)NC(=O)/C(C)=C\C=C\[C@H](C)[C@H](O)[C@@H](C)[C@@H](O)[C@@H](C)[C@H](O)[C@@H]1C [Compound 29] | 0.008 µg/mL (≈ 8.48 nM) | 0.00012 µg/mL (≈ 0.127 nM) | 2 µg/mL (≈ 2120 nM) | 1 µg/mL (≈ 1060 nM) | >8 µg/mL |
| CCOC(=O)NC1CCN(c2ccc3nc4c5c6c7c(C)c(O)c5c(=O)c(c-4n(C)c3c2)NC(=O)/C(C)=C\C=C\[C@H](C)[C@H](O)[C@@H](C)[C@@H](O)[C@@H](C)[C@H](O)[C@H](C)[C@@H](OC)/C=C/O[C@@](C)(O7)C6=O)CC1 [Compound 31] | 0.03 µg/mL (≈ 32.4 nM) | 0.0005 µg/mL (≈ 0.54 nM) | 0.25 µg/mL (≈ 270 nM) | 0.25 µg/mL (≈ 270 nM) | 8 µg/mL (≈ 8640 nM) |
| CO[C@H]1/C=C/O[C@@]2(C)Oc3c(C)c(O)c4c(=O)c(c5oc6cc(N7CCC(N)CC7)cc(O)c6nc-5c4c3C2=O)NC(=O)/C(C)=C\C=C\[C@H](C)[C@H](O)[C@@H](C)[C@@H](O)[C@@H](C)[C@H](OC(C)=O)[C@@H]1C [Compound 33, 3′-hydroxy-5′-[4-amino-1-piperidinyl]benzoxazinorifamycin] | 0.008 µg/mL (≈ 8.9 nM) | 0.00006 µg/mL (≈ 0.0667 nM) | 1 µg/mL (≈ 1110 nM) | 1 µg/mL (≈ 1110 nM) | >8 µg/mL |
| CCNC(=O)NC1CCN(c2cc(O)c3nc4c5c6c7c(C)c(O)c5c(=O)c(c-4oc3c2)NC(=O)/C(C)=C\C=C\[C@H](C)[C@H](O)[C@@H](C)[C@@H](O)[C@@H](C)[C@H](OC(C)=O)[C@H](C)[C@@H](OC)/C=C/O[C@@](C)(O7)C6=O)CC1 [Compound 34, 3′-hydroxy-5′-[4-ethyluryl-1-piperidinyl]benzoxazinorifamycin] | 0.03 µg/mL (≈ 30.9 nM) | 0.001 µg/mL (≈ 1.03 nM) | 2 µg/mL (≈ 2060 nM) | 0.5 µg/mL (≈ 515 nM) | 8 µg/mL (≈ 8250 nM) |
| CCCS(=O)(=O)NC1CCN(c2cc(O)c3nc4c5c6c7c(C)c(O)c5c(=O)c(c-4oc3c2)NC(=O)C(C)=CC=CC(C)C(O)C(C)C(O)C(C)C(OC(C)=O)C(C)C(OC)C=COC(C)(O7)C6=O)CC1 (centres unmarked) [Compound 35] | 0.015 µg/mL (≈ 14.9 nM) | 0.00025 µg/mL (≈ 0.249 nM) | 4 µg/mL (≈ 3980 nM) | 0.5 µg/mL (≈ 497 nM) | 8 µg/mL (≈ 7960 nM) |
| CCCC(=O)NC1CCN(c2cc(O)c3nc4c5c6c7c(C)c(O)c5c(=O)c(c-4oc3c2)NC(=O)C(C)=CC=CC(C)C(O)C(C)C(O)C(C)C(O)C(C)C(OC)C=COC(C)(O7)C6=O)CC1 (centres unmarked) [Compound 36, 25-O-deacetyl-3′-hydroxy-5′-[4-butanamide-1-piperidinyl]benzoxazinorifamycin] | 0.004 µg/mL (≈ 4.31 nM) | 0.00003 µg/mL (≈ 0.0324 nM) | 2 µg/mL (≈ 2160 nM) | 0.25 µg/mL (≈ 270 nM) | >8 µg/mL |
| CCNC(=O)NC1CCN(c2cc(O)c3nc4c5c6c7c(C)c(O)c5c(=O)c(c-4oc3c2)NC(=O)C(C)=CC=CC(C)C(O)C(C)C(O)C(C)C(O)C(C)C(OC)C=COC(C)(O7)C6=O)CC1 (centres unmarked) [Compound 37, 25-O-deacetyl-3′-hydroxy-5′-[4-ethyluryl-1-piperidinyl]benzoxazinorifamycin] | 0.03 µg/mL (≈ 32.3 nM) | 0.004 µg/mL (≈ 4.31 nM) | 2 µg/mL (≈ 2160 nM) | 0.25 µg/mL (≈ 269 nM) | >8 µg/mL |
| COC1C=COC2(C)Oc3c(C)c(O)c4c(=O)c(c5oc6cc(N7CCC(NS(=O)(=O)C(F)(F)F)CC7)cc(O)c6nc-5c4c3C2=O)NC(=O)C(C)=CC=CC(C)C(O)C(C)C(O)C(C)C(O)C1C (centres unmarked) [Compound 38] | 0.12 µg/mL (≈ 121 nM) | 0.015 µg/mL (≈ 15.2 nM) | 8 µg/mL (≈ 8090 nM) | 0.25 µg/mL (≈ 253 nM) | >8 µg/mL |
